Data reported in patent US20230321284A1, “COMPOUND, CONTRAST AGENT, AND METHOD FOR PRODUCING COMPOUND” (ST. MARIANNA UNIVERSITY SCHOOL OF MEDICINE, priority 2020, published 2023).

Experiments:
Panc-1 cells = test: Uptake inhibition test of I-ASOR in pancreatic cancer cell line Panc-1 having no asialoglycoprotein receptor (Test Example 1); format: cell-based; settings: compound 100 μg/mL, I-ASOR 6 μg/mL, 4° C. for 30 minutes, FIG. 2
Procedure: A similar experiment was conducted using a pancreatic cancer cell line Panc-1 having no asialoglycoprotein receptor. Specifically, the test is based on the following method.
I-ASOR labeled with radioactive iodine (125I) in the same manner as above was prepared as a 6 μg/mL solution in PBS and reacted with Panc-1 cells washed with ice-cold MEM (GIBCO) in 6 wells at 4° C. for 30 minutes. The cells were thoroughly washed and then lysed using 0.1 N NaOH, and radiation dose “A” taken up into the cells was measured (control sample). Similar measurement was performed by the addition of I-ASOR as well as MEG-1, MEG-2, or RYO-1 at 100 μg/mL to measure radiation dose “A” when each compound was added.
Next, the background of nonspecific binding of I-ASOR was measured as follows in order to eliminate the influence of the nonspecific binding of I-ASOR to the cells. Specifically, I-ASOR (6 μg/mL) and a 100-fold concentration (600 μg/mL) of nonlabelled ASOR were mixed and reacted with Panc-1 in the same manner as above. Then, the obtained cells were washed and lysed, and radiation dose “B” was measured. The radiation dose “B” as the background was commonly used in all of the control sample and the sample supplemented with each compound.
Next, “A-B” was calculated as to each sample to calculate I-ASOR specifically taken up into Panc-1. […]

[1] = biological target: T1, asialoglycoprotein receptor (Homo sapiens, UniProt P07306+P07307); test: Uptake inhibition test of I-ASOR in liver cancer cell line HepG2 (Test Example 1); format: cell-based; settings: compound 100 μg/mL, I-ASOR 6 μg/mL, 4° C. for 30 minutes, FIG. 1
T1 construct: reacted with HepG2 cells washed with ice-cold MEM (GIBCO) in 6 wells; endogenous in cells; host or cells: HepG2
T1 sequence (P07306 1-291): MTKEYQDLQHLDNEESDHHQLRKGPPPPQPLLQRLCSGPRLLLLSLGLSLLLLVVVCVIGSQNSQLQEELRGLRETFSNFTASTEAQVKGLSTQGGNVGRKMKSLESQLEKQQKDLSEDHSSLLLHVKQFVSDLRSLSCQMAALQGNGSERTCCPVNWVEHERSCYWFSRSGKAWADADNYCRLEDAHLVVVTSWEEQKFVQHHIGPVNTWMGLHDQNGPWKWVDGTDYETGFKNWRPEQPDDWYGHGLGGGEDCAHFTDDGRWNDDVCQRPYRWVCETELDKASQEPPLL
T1 sequence (P07307 1-311): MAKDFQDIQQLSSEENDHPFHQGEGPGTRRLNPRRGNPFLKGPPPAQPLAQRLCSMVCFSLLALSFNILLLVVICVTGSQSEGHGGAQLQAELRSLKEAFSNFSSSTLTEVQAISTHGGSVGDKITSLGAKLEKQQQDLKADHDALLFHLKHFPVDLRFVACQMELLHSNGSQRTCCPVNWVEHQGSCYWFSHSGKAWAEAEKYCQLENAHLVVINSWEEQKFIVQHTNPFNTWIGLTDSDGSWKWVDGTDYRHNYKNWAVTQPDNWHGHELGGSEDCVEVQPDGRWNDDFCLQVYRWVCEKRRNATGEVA
Procedure: RYO-1, MEG-1, and MEG-2 prepared in Examples were subjected to an uptake inhibition test, in which the uptake is performed by an asialoglycoprotein receptor specifically expressed in hepatocytes, using a liver cancer cell line HepG2 in accordance with J Gastroenterol 1998, 33, 855-859. Specifically, the test is based on the following method.
First, orosomucoid (Sigma-Aldrich Co., LLC) was converted to an asialo compound through reaction with immobilized neuraminidase (Sigma-Aldrich Co., LLC) at 37° C. for 12 hours. This asialo-orosomucoid (ASOR) was labeled with radioactive iodine (125I) by use of the chloramine-T method to prepare I-ASOR.
The obtained I-ASOR was prepared as a 6 μg/mL solution in PBS and reacted with HepG2 cells washed with ice-cold MEM (GIBCO) in 6 wells at 4° C. for 30 minutes. The cells were thoroughly washed and then lysed using 0.1 N NaOH, and radiation dose “A” taken up into the cells was measured (control sample). […]
Next, the background of nonspecific binding of I-ASOR was measured as follows in order to eliminate the influence of the nonspecific binding of I-ASOR to the cells. […] Then, the obtained cells were washed and lysed, and radiation dose “B” was measured. […]
Next, “A-B” was calculated as to each sample to calculate I-ASOR specifically taken up into HepG2. […]

[2] = biological target: T1, asialoglycoprotein receptor; test: Comparison of uptake activity by asialoglycoprotein receptor among compounds in HepG2 (Test Example 2); format: cell-based; settings: compound 1.0 mM/mL, I-ASOR 0.4 μg/mL, 37° C. for 30 minutes, FIG. 3
Procedure: Uptake activity by an asialoglycoprotein receptor was compared among MEG-2, MEG-4, RYO-1, and RYO-2 by use of the same method as in Test Example 1.
A PBS solution containing 0.4 μg/mL I-ASOR obtained in the same manner as in Test Example 1 and 1.0 mM/mL MEG-2, MEG-4, RYO-1, or RYO-2 was prepared and reacted with HepG2 washed with ice-cold MEM (GIBCO) in 6 wells at 37° C. for 30 minutes. The cells were thoroughly washed and then lysed using 0.1 N NaOH, and radiation dose “A” taken up into HepG2 was measured.
An experiment was conducted as a positive control in which a PBS solution containing 0.4 μg/mL I-ASOR and 1000 μg/mL nonlabelled ASOR was prepared and reacted with HepG2 washed with ice-cold MEM (GIBCO) in 6 wells at 4° C. for 30 minutes.
Next, the background of nonspecific binding of I-ASOR was measured as follows in order to eliminate the influence of the nonspecific binding of I-ASOR to the cells. Specifically, I-ASOR (0.4 μg/mL) and a 100-fold concentration (40 μg/mL) of nonlabelled ASOR were mixed and reacted with HepG2 in the same manner as above. Then, the obtained cells were washed and lysed, and radiation dose “B” was measured. The radiation dose “B” as the background was commonly used in all of the control sample, the positive control sample, and the sample supplemented with each compound.
Next, “A-B” was calculated as to each sample to calculate I-ASOR specifically taken up into HepG2. The experiment was conducted in triplicate to calculate standard deviation.

[3] = Contrast experiment: CT imaging after tail vein injection (Test Example 3); format: in vivo; settings: 9-week-old male ICR mouse, MEG-1 dose 52 mg/animal, images before, during, 15 minutes and 1 hour after administration
Procedure: A 9-week-old male ICR mouse purchased from CLEA Japan, Inc. was anesthetized by isoflurane inhalation. While the respiratory condition was monitored with DELPet μCT100 application software (DELBio, Inc.), MEG-1 was gradually administered by injection from the tail vein. The dose of MEG-1 was set to 52 mg/animal.
CT images were taken before administration, during administration, 15 minutes after administration and 1 hour after administration. Image data from the chest to the lower abdomen was reconstituted at a pixel size of […] and converted to dicom data. Further, the images were analyzed with VivoQuant software (inviCRO. LLC).
A similar test was conducted using MEG-2, MEG-4, or RYO-2 instead of MEG-1.

Row | SMILES | inhibition of the uptake of the ligand (I-ASOR) in Panc-1 (Panc-1 cells) | inhibition of the uptake of the ligand (I-ASOR) in HepG2 [1] | inhibition of the uptake of the ligand (I-ASOR) in HepG2 [2] | CT images: appearance of high-absorption liquid (excretion sites) [3] | inhibitory ability on ligand uptake compared between compounds [2]
1 | CC(=O)Nc1c(I)c(NC(C)=O)c(I)c(C(=O)NCCNC(=O)[C@H](O)[C@@H](O)C(O[C@@H]2OC(CO)[C@H](O)[C@H](O)C2O)[C@@H](O)CO)c1I (stereo partly drawn) [RYO-1] | none of RYO-1, MEG-1, and MEG-2 inhibited the uptake of the ligand | competitively inhibit the uptake of the ligand | competitively inhibited the uptake of the ligand in HepG2 |  | 
2 | O=C(NCCNC(=O)[C@H](O)[C@@H](O)[C@H](O[C@@H]1O[C@H](CO)[C@H](O)[C@H](O)[C@H]1O)[C@H](O)CO)c1c(I)c(C(=O)NCCNC(=O)[C@H](O)[C@@H](O)[C@H](O[C@@H]2O[C@H](CO)[C@H](O)[C@H](O)[C@H]2O)[C@H](O)CO)c(I)c(C(=O)NCCNC(=O)[C@H](O)[C@@H](O)C(O[C@@H]2O[C@H](CO)[C@H](O)[C@H](O)[C@H]2O)[C@H](O)CO)c1I (stereo partly drawn) [RYO-2] |  |  | competitively inhibited the uptake of the ligand in HepG2 | a liquid that exhibited high absorption, which was not observed before administration, was confirmed to appear over time in the intestine and in the urinary bladder | higher in RYO-2 than in RYO-1
3 | CC(=O)Nc1c(I)c(NC(C)=O)c(I)c(C(=O)NCCO[C@@H]2OC(CO)[C@H](O)C(O)[C@@H]2O)c1I (stereo partly drawn) [MEG-1] | none of RYO-1, MEG-1, and MEG-2 inhibited the uptake of the ligand | competitively inhibit the uptake of the ligand |  | a liquid that exhibited high absorption, which was not observed before administration, was confirmed to appear over time in the intestine and in the urinary bladder | 
4 | O=C(NCCOCCO[C@@H]1OC(CO)[C@H](O)[C@H](O)C1O)c1c(I)c(C(=O)NCCOCCO[C@@H]2OC(CO)[C@H](O)[C@H](O)C2O)c(I)c(C(=O)NCCOCCO[C@@H]2OC(CO)[C@H](O)[C@H](O)C2O)c1I (stereo partly drawn) [MEG-4] |  |  | competitively inhibited the uptake of the ligand in HepG2 | a liquid that exhibited high absorption, which was not observed before administration, was confirmed to appear over time in the intestine and in the urinary bladder | higher in MEG-4 than in MEG-2
